Here are results for eight compounds from ChEMBL document CHEMBL1201862, “PubChem BioAssay data set” (2004).

Test systems include 786-0; A498; A549; ACHN; BT-549; HCT-15; HOP-62; KM12; LOX IMVI; MDA-N; Malme-3M; NCI-H226; OVCAR-4; PC-3; SNB-19; TK-10; UACC-257; OVCAR-3; SK-MEL-5; SNB-75.
Common to all, as to assay: NCI-60 cell line screen, 48 h

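Where inhibition never reached the appropriate level, the endpoint shown equals the highest concentration tested. Otherwise, values were interpolated linearly from a five-concentration, 48-hour dose response in 96-well plates. At the GI50, growth is halved.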 Active and inactive are the calls of the source. Cut-off read from the data, not from the text of the source: active = GI50 up to about 1.1 µM and inactive = higher. Where only a bound is given, the exact number is not on record here.

For the compound `C[C@]12CC[C@H]3[C@@H](CC=C4C[C@@H](O)CC[C@@]43C)[C@@H]1C/C(=C\c1cccnc1)[C@@H]2O`, the GI50 in the experiment on 786-0 was 19 µM (inactive); in the experiment with A498, 7.14 µM (inactive); with A549 it was 7.83 µM (inactive); in the experiment with ACHN, 5.82 µM (inactive); with BT-549, 13.5 µM (inactive); in the experiment with HCT-15, 38.1 µM. Besides, the GI50 with HOP-62 is 4.67 µM (inactive); in the experiment on KM12, > 100 µM (inactive); in the experiment with LOX IMVI, 1.28 µM (inactive); in the experiment with MDA-N, > 100 µM (inactive); in the experiment on Malme-3M it was > 100 µM (inactive); with NCI-H226, 5.25 µM (inactive). Moreover, the GI50 was 4.68 µM (inactive) in the experiment on OVCAR-4; 30.7 µM (inactive) with PC-3; 16 µM (inactive) in the experiment on SNB-19; 19.6 µM (inactive) with TK-10; 39.2 µM (inactive) in the experiment with UACC-257.
Consider `CC(=O)N[C@@H](Cc1ccc(O)cn1)C(=O)NCc1ccc2c(c1)OCO2`, for which the GI50 with 786-0 was > 100 µM (inactive); in the experiment with A498 it was > 100 µM (inactive); with A549 it was > 100 µM (inactive); with ACHN, > 100 µM (inactive); in the experiment with BT-549 it was > 100 µM (inactive); with HCT-15, > 100 µM. The GI50 with HOP-62, in the experiment with KM12, with LOX IMVI, in the experiment with MDA-N, in the experiment with Malme-3M and in the experiment on NCI-H226 was > 100 µM (inactive) each time. The GI50 with OVCAR-3, with OVCAR-4, in the experiment on PC-3, with SK-MEL-5, in the experiment on SNB-19 and with TK-10 was > 100 µM (inactive) each time. Further, in the experiment with UACC-257, the GI50 is > 100 µM (inactive).
Consider `CCS(=O)(=O)CCn1c(=O)c2c(ncn2C)n(C)c1=O`, for which the GI50 in the experiment on 786-0 was > 100 µM (inactive); in the experiment with A498, > 100 µM (inactive); in the experiment with A549, > 100 µM (inactive); in the experiment with ACHN, > 100 µM (inactive); in the experiment on BT-549 it was > 100 µM (inactive); with HCT-15, > 100 µM. Further, the GI50 in the experiment on HOP-62, in the experiment on KM12, in the experiment on LOX IMVI, with MDA-N, in the experiment on Malme-3M and with OVCAR-3 was > 100 µM (inactive) throughout. Moreover, the GI50 in the experiment with OVCAR-4, with PC-3, with SK-MEL-5, in the experiment with SNB-19, in the experiment on SNB-75 and with TK-10 was > 100 µM (inactive) in each case. In the experiment with UACC-257, the GI50 is 45.4 µM (inactive).
For `COc1ccc(C(=O)/C=C2\c3ccccc3C(=O)N2C)cc1`, the GI50 with 786-0 is 92.3 µM (inactive); in the experiment with A498, 69 µM (inactive); in the experiment with A549, 58.6 µM (inactive); in the experiment with ACHN, 89.5 µM (inactive); with BT-549 it was 68.1 µM (inactive); in the experiment on HCT-15, 36.4 µM. Further, the GI50 was 60.4 µM (inactive) in the experiment with HOP-62; 62.8 µM (inactive) with KM12; 46.8 µM (inactive) in the experiment with LOX IMVI; 41.4 µM (inactive) with MDA-N; 31.7 µM (inactive) with Malme-3M; 98.2 µM (inactive) in the experiment on OVCAR-3. In addition, the GI50 in the experiment with OVCAR-4 is 42.6 µM (inactive); with PC-3, 89.1 µM (inactive); with SK-MEL-5, 63.4 µM (inactive); with SNB-19 it was > 100 µM (inactive); in the experiment with SNB-75 it was 22.8 µM (inactive); in the experiment with TK-10, 31.2 µM (inactive). The GI50 in the experiment on UACC-257 is 31.3 µM (inactive).
In the case of `O=[N+]([O-])c1ccc2sc(/C=N/c3ccc(O)cc3)cc2c1`, the GI50 in the experiment with 786-0 is 19 µM (inactive); with A498 it was 72.8 µM (inactive); in the experiment with A549, 48 µM (inactive); in the experiment on ACHN, 32.2 µM (inactive); in the experiment on BT-549 it was 22.3 µM (inactive); in the experiment with HCT-15, 32.4 µM. Also, the GI50 in the experiment with HOP-62 was 34.7 µM (inactive); in the experiment with KM12, 33.7 µM (inactive); in the experiment with LOX IMVI it was 23.3 µM (inactive); in the experiment with MDA-N, 27.3 µM (inactive); with Malme-3M it was 28.3 µM (inactive); in the experiment on OVCAR-3 it was 15.2 µM (inactive). For the same compound, the GI50 with PC-3 is 29.6 µM (inactive); in the experiment on SK-MEL-5 it was 21.8 µM (inactive); in the experiment with SNB-19 it was 34 µM (inactive); with SNB-75, 25.8 µM (inactive); in the experiment with TK-10 it was 63.7 µM (inactive); in the experiment with UACC-257 it was 23 µM (inactive).
With `CC1(C)N=C(N)N=C(N)N1c1cccc(Cl)c1`, the GI50 is 0.585 µM (active) with 786-0; > 100 µM (inactive) with A498; 2.41 µM (inactive) in the experiment with A549; 5.21 µM (inactive) with ACHN; 6.71 µM (inactive) with BT-549; 10.5 µM with HCT-15. Also, the GI50 in the experiment with HOP-62 is 4.85 µM (inactive); with KM12, 7.98 µM (inactive); in the experiment with LOX IMVI, 2.54 µM (inactive); in the experiment on MDA-N, 0.49 µM (active); in the experiment with Malme-3M it was 9.82 µM (inactive); in the experiment on OVCAR-3, 22.4 µM (inactive). Moreover, the GI50 in the experiment on OVCAR-4 was > 100 µM (inactive); in the experiment on PC-3 it was > 100 µM (inactive); in the experiment on SK-MEL-5 it was 22.4 µM (inactive); with SNB-19, > 100 µM (inactive); in the experiment with SNB-75 it was 25.6 µM (inactive); in the experiment on TK-10, 91.2 µM (inactive). Further, the GI50 in the experiment on UACC-257 is 5.56 µM (inactive).
`COc1ccc(OC)c2sc(N3C(=O)/C(=C/c4cccc(Oc5ccccc5)c4)N=C3c3ccccc3)nc12`: the GI50 with 786-0 was > 100 µM (inactive); with A498, > 100 µM (inactive); in the experiment on A549 it was > 100 µM (inactive); in the experiment on ACHN, > 100 µM (inactive); in the experiment with BT-549, > 100 µM (inactive); in the experiment with HCT-15 it was 87.9 µM. The GI50 was > 100 µM (inactive) in the experiment with HOP-62; 70 µM (inactive) in the experiment on KM12; 65.3 µM (inactive) in the experiment on LOX IMVI; 38 µM (inactive) in the experiment with MDA-N; > 100 µM (inactive) in the experiment on Malme-3M; > 100 µM (inactive) in the experiment with OVCAR-3. The GI50 in the experiment with OVCAR-4 is > 100 µM (inactive); with PC-3, > 100 µM (inactive); with SK-MEL-5, 47.5 µM (inactive); in the experiment with SNB-19, > 100 µM (inactive); in the experiment with SNB-75 it was > 100 µM (inactive); in the experiment with TK-10 it was > 100 µM (inactive). For the same compound, in the experiment on UACC-257, the GI50 was 71.3 µM (inactive).
As for `COC(=O)C(I(OS(=O)(=O)c1ccc(C)cc1)c1ccccc1)=P(c1ccccc1)(c1ccccc1)c1ccccc1`, the GI50 in the experiment on 786-0 was 12.4 µM (inactive); with A498, 18.2 µM (inactive); with A549, 24.5 µM (inactive); in the experiment with ACHN, 16.6 µM (inactive); in the experiment with BT-549 it was 21.2 µM (inactive); with HCT-15, 35.3 µM. Further, the GI50 is 19.3 µM (inactive) in the experiment on HOP-62; 19.5 µM (inactive) in the experiment with KM12; 14.1 µM (inactive) with MDA-N; 7.94 µM (inactive) in the experiment with Malme-3M; 8.39 µM (inactive) with NCI-H226; 16.4 µM (inactive) in the experiment on OVCAR-3. Besides, the GI50 with OVCAR-4 was 13.7 µM (inactive); in the experiment with PC-3, 18.9 µM (inactive); in the experiment on SK-MEL-5 it was 12.2 µM (inactive); with SNB-19 it was 33.9 µM (inactive); in the experiment with TK-10, 23.6 µM (inactive); in the experiment with UACC-257, 17.9 µM (inactive).
